Experimental data as given in patent US20260232767A1, “INTERLEUKIN-23 RECEPTOR ANTAGONIST PEPTIDES FOR USE IN THE TREATMENT OF PSORIASIS” (Janssen Pharmaceutica NV, priority 2023, published 2026).

Tested on: subjects with moderate-to-severe plaque psoriasis
Experiment: PSSD symptom and sign scores, Example 2
Assay type: in vivo, human
Details: for Change from Baseline in PSSD Sign Score, LSMean / Change from Baseline in PSSD Symptom Score, LSMean: MMRM

CC(=O)NCCCC[C@@H]1NC(=O)[C@H](Cc2c[nH]c3c(C)cccc23)NC(=O)[C@H]([C@@H](C)O)NC(=O)[C@H](CC(N)=O)NC(=O)[C@@H](NC(C)=O)C(C)(C)SSC(C)(C)[C@@H](C(=O)N[C@@H](Cc2ccc(OCCN)cc2)C(=O)N[C@@H](Cc2ccc3ccccc3c2)C(=O)NC2(C(=O)N[C@@H](CCC(=O)O)C(=O)N[C@@H](CC(N)=O)C(=O)N[C@@H](Cc3cccnc3)C(=O)N(C)CC(N)=O)CCOCC2)NC1=O [IL-23 receptor antagonist peptide, Ac-[Pen]*-N-T-[W(7-Me)]-[Lys(Ac)]-[Pen]*-Phe[4-(2-aminoethoxy)]-[2-Nal]-[THP]-E-N-[3-Pal]-Sarc-NH2 (*[Pen]-[Pen]* formdisulfidebond)]
Subjects Achieving PSSD Sign Score 0 (%) (Week 16, 25 mg QD, Baseline Sign Score ≥1, N=43): (2.3%) | Subjects Achieving PSSD Symptom Score 0 (%) (Week 16, 25 mg QD, Baseline Symptom Score ≥1, N=43): (16.3%) | Change from Baseline in PSSD Sign Score, LSMean (Week 16, 25 mg QD): −31.7 | Change from Baseline in PSSD Symptom Score, LSMean (Week 16, 25 mg QD): −28.0 | Change from Baseline in PSSD Sign Score, Mean (Week 16, 50 mg QD): −42.7 | Change from Baseline in PSSD Sign Score, Median (Week 16, 50 mg QD): −43.0 | Change from Baseline in PSSD Symptom Score, Mean (Week 16, 50 mg QD): −36.7 | Change from Baseline in PSSD Symptom Score, Median (Week 16, 50 mg QD): −36.0 | Subjects Achieving PSSD Sign Score 0 (%) (Week 16, 50 mg QD, Baseline Sign Score ≥1, N=43): (14.0%) | Subjects Achieving PSSD Symptom Score 0 (%) (Week 16, 50 mg QD, Baseline Symptom Score ≥1, N=42): (23.8%) | Change from Baseline in PSSD Sign Score, LSMean (Week 16, 50 mg QD): −42.9 | Change from Baseline in PSSD Symptom Score, LSMean (Week 16, 50 mg QD): −35.4 | Change from Baseline in PSSD Sign Score, Mean (Week 16, 100 mg BID): −51.1 | Change from Baseline in PSSD Sign Score, Median (Week 16, 100 mg BID): −55.0 | Change from Baseline in PSSD Symptom Score, Mean (Week 16, 100 mg BID): −44.0 | Change from Baseline in PSSD Symptom Score, Median (Week 16, 100 mg BID): −42.0 | Subjects Achieving PSSD Sign Score 0 (%) (Week 16, 100 mg BID, Baseline Sign Score ≥1, N=42): (14.3%) | Subjects Achieving PSSD Symptom Score 0 (%) (Week 16, 100 mg BID, Baseline Symptom Score ≥1, N=42): (26.2%) | Change from Baseline in PSSD Sign Score, LSMean (Week 16, 100 mg BID): −50.6 | Change from Baseline in PSSD Symptom Score, LSMean (Week 16, 100 mg BID): −40.2 | Change from Baseline in PSSD Sign Score, Median (Week 16, 100 mg QD): −45.0 | Change from Baseline in PSSD Symptom Score, Mean (Week 16, 100 mg QD): −29.4 | Change from Baseline in PSSD Symptom Score, Median (Week 16, 100 mg QD): −31.0 | Subjects Achieving PSSD Sign Score 0 (%) (Week 16, 100 mg QD, Baseline Sign Score ≥1, N=43): (16.3%) | Subjects Achieving PSSD Symptom Score 0 (%) (Week 16, 100 mg QD, Baseline Symptom Score ≥1, N=43): (27.9%) | Change from Baseline in PSSD Sign Score, LSMean (Week 16, 100 mg QD): −45.3 | Change from Baseline in PSSD Symptom Score, LSMean (Week 16, 100 mg QD): −36.8 | Change from Baseline in PSSD Sign Score, Mean (Week 24, 25 mg BID): −39.8 | Change from Baseline in PSSD Sign Score, Median (Week 24, 25 mg BID): −41.0 | Change from Baseline in PSSD Symptom Score, Mean (Week 24, 25 mg BID): −33.3 | Change from Baseline in PSSD Symptom Score, Median (Week 24, 25 mg BID): −29.0 | Subjects Achieving PSSD Sign Score 0 (%) (Week 24, 25 mg BID, Baseline Sign Score ≥1, N=41): (4.9%) | Subjects Achieving PSSD Symptom Score 0 (%) (Week 24, 25 mg BID, Baseline Symptom Score ≥1, N=41): (7.3%) | Change from Baseline in PSSD Sign Score, LSMean (Week 24, 25 mg BID): −37.7 | Change from Baseline in PSSD Symptom Score, LSMean (Week 24, 25 mg BID): −32.1 | Change from Baseline in PSSD Sign Score, Mean (Week 24, 25 mg QD): −38.6 | Change from Baseline in PSSD Sign Score, Median (Week 24, 25 mg QD): −44.5 | Change from Baseline in PSSD Symptom Score, Mean (Week 24, 25 mg QD): −32.9 | Change from Baseline in PSSD Symptom Score, Median (Week 24, 25 mg QD): −33.0 | Subjects Achieving PSSD Sign Score 0 (%) (Week 24, 25 mg QD, Baseline Sign Score ≥1, N=43): (14.0%) | Subjects Achieving PSSD Symptom Score 0 (%) (Week 24, 25 mg QD, Baseline Symptom Score ≥1, N=43): (20.9%) | Change from Baseline in PSSD Sign Score, LSMean (Week 24, 25 mg QD): −31.6 | Change from Baseline in PSSD Symptom Score, LSMean (Week 24, 25 mg QD): −25.3 | Change from Baseline in PSSD Sign Score, Mean (Week 24, 50 mg QD): −45.7 | Change from Baseline in PSSD Sign Score, Median (Week 24, 50 mg QD): −47.5 | Change from Baseline in PSSD Symptom Score, Mean (Week 24, 50 mg QD): −38.8 | Change from Baseline in PSSD Symptom Score, Median (Week 24, 50 mg QD): −40.0 | Subjects Achieving PSSD Sign Score 0 (%) (Week 24, 50 mg QD, Baseline Sign Score ≥1, N=43): (9.3%) | Subjects Achieving PSSD Symptom Score 0 (%) (Week 24, 50 mg QD, Baseline Symptom Score ≥1, N=42): (14.3%) | Change from Baseline in PSSD Sign Score, LSMean (Week 24, 50 mg QD): −45.3 | Change from Baseline in PSSD Symptom Score, LSMean (Week 24, 50 mg QD): −36.3 | Change from Baseline in PSSD Sign Score, Mean (Week 24, 100 mg BID): −51.6 | Change from Baseline in PSSD Sign Score, Median (Week 24, 100 mg BID): −53.0 | Change from Baseline in PSSD Symptom Score, Mean (Week 24, 100 mg BID): −44.8 | Change from Baseline in PSSD Symptom Score, Median (Week 24, 100 mg BID): −44.0 | Subjects Achieving PSSD Sign Score 0 (%) (Week 24, 100 mg BID, Baseline Sign Score ≥1, N=42): (19.0%) | Subjects Achieving PSSD Symptom Score 0 (%) (Week 24, 100 mg BID, Baseline Symptom Score ≥1, N=42): (21.4%) | Change from Baseline in PSSD Sign Score, LSMean (Week 24, 100 mg BID): −50.0 | Change from Baseline in PSSD Symptom Score, LSMean (Week 24, 100 mg BID): −40.3 | Change from Baseline in PSSD Sign Score, Mean (Week 24, 100 mg QD): −41.9 | Change from Baseline in PSSD Sign Score, Median (Week 24, 100 mg QD): −44.0 | Change from Baseline in PSSD Symptom Score, Mean (Week 24, 100 mg QD): −28.4 | Change from Baseline in PSSD Symptom Score, Median (Week 24, 100 mg QD): −26.0 | Subjects Achieving PSSD Sign Score 0 (%) (Week 24, 100 mg QD, Baseline Sign Score ≥1, N=43): (11.6%) | Subjects Achieving PSSD Symptom Score 0 (%) (Week 24, 100 mg QD, Baseline Symptom Score ≥1, N=43): (25.6%) | Change from Baseline in PSSD Sign Score, LSMean (Week 24, 100 mg QD): −46.3 | Change from Baseline in PSSD Symptom Score, LSMean (Week 24, 100 mg QD): −36.4 | Change from Baseline in PSSD Sign Score, Mean (Week 24, Placebo → 100 mg QD): −40.2 | Change from Baseline in PSSD Sign Score, Median (Week 24, Placebo → 100 mg QD): −40.0 | Change from Baseline in PSSD Symptom Score, Mean (Week 24, Placebo → 100 mg QD): −26.6 | Change from Baseline in PSSD Symptom Score, Median (Week 24, Placebo → 100 mg QD): −26.0 | Subjects Achieving PSSD Sign Score 0 (%) (Week 24, Placebo → 100 mg QD, Baseline Sign Score ≥1, crossed-over subjects only): (8.6%) | Subjects Achieving PSSD Symptom Score 0 (%) (Week 24, Placebo → 100 mg QD, Baseline Symptom Score ≥1, crossed-over subjects only): (11.4%) | Change from Baseline in PSSD Sign Score, LSMean (Week 24, Placebo → 100 mg QD): −40.3 | Change from Baseline in PSSD Symptom Score, LSMean (Week 24, Placebo → 100 mg QD): −29.2 | Change from Baseline in PSSD Sign Score, Mean (Week 32, 25 mg BID): −38.3 | Change from Baseline in PSSD Sign Score, Median (Week 32, 25 mg BID): −38.0 | Change from Baseline in PSSD Symptom Score, Mean (Week 32, 25 mg BID): −31.0 | Change from Baseline in PSSD Symptom Score, Median (Week 32, 25 mg BID): −28.0 | Subjects Achieving PSSD Sign Score 0 (%) (Week 32, 25 mg BID, Baseline Sign Score ≥1, N=41): (4.9%) | Subjects Achieving PSSD Symptom Score 0 (%) (Week 32, 25 mg BID, Baseline Symptom Score ≥1, N=41): (7.3%) | Change from Baseline in PSSD Sign Score, LSMean (Week 32, 25 mg BID): −38.9 | Change from Baseline in PSSD Symptom Score, LSMean (Week 32, 25 mg BID): −31.4 | Change from Baseline in PSSD Sign Score, Mean (Week 32, 25 mg QD): −37.2 | Change from Baseline in PSSD Sign Score, Median (Week 32, 25 mg QD): −39.0 | Change from Baseline in PSSD Symptom Score, Mean (Week 32, 25 mg QD): −32.5 | Change from Baseline in PSSD Symptom Score, Median (Week 32, 25 mg QD): −32.0 | Subjects Achieving PSSD Sign Score 0 (%) (Week 32, 25 mg QD, Baseline Sign Score ≥1, N=43): (9.3%) | Subjects Achieving PSSD Symptom Score 0 (%) (Week 32, 25 mg QD, Baseline Symptom Score ≥1, N=43): (20.9%) | Change from Baseline in PSSD Sign Score, LSMean (Week 32, 25 mg QD): −31.3 | Change from Baseline in PSSD Symptom Score, LSMean (Week 32, 25 mg QD): −26.2 | Change from Baseline in PSSD Sign Score, Mean (Week 32, 50 mg QD): −39.7 | Change from Baseline in PSSD Sign Score, Median (Week 32, 50 mg QD): −45.0 | Change from Baseline in PSSD Symptom Score, Mean (Week 32, 50 mg QD): −35.9 | Change from Baseline in PSSD Symptom Score, Median (Week 32, 50 mg QD): −32.0 | Subjects Achieving PSSD Sign Score 0 (%) (Week 32, 50 mg QD, Baseline Sign Score ≥1, N=43): (9.3%) | Subjects Achieving PSSD Symptom Score 0 (%) (Week 32, 50 mg QD, Baseline Symptom Score ≥1, N=42): (14.3%) | Change from Baseline in PSSD Sign Score, LSMean (Week 32, 50 mg QD): −39.0 | Change from Baseline in PSSD Symptom Score, LSMean (Week 32, 50 mg QD): −32.9 | Change from Baseline in PSSD Sign Score, Mean (Week 32, 100 mg BID): −52.3 | Change from Baseline in PSSD Sign Score, Median (Week 32, 100 mg BID): −54.0 | Change from Baseline in PSSD Symptom Score, Mean (Week 32, 100 mg BID): −45.5 | Change from Baseline in PSSD Symptom Score, Median (Week 32, 100 mg BID): −47.0 | Subjects Achieving PSSD Sign Score 0 (%) (Week 32, 100 mg BID, Baseline Sign Score ≥1, N=42): (21.4%) | Subjects Achieving PSSD Symptom Score 0 (%) (Week 32, 100 mg BID, Baseline Symptom Score ≥1, N=42): (23.8%) | Change from Baseline in PSSD Sign Score, LSMean (Week 32, 100 mg BID): −51.0 | Change from Baseline in PSSD Symptom Score, LSMean (Week 32, 100 mg BID): −40.9 | Change from Baseline in PSSD Sign Score, Mean (Week 32, 100 mg QD): −42.3 | Change from Baseline in PSSD Sign Score, Median (Week 32, 100 mg QD): −43.0
